The target in the experiment is human factor Xa (FXa) (Homo sapiens, UniProt P00742). Kind of experiment: Determination of the factor Xa inhibition (chromogenic substrate). The format is biochemical. The note with it: human FXa 0.5 nmol/l, 150 μmol/l Pefachrome FXa, 25° C., pH 8.3. On the procedure:
The enzymatic activity of human factor Xa (FXa) is measured using the conversion of a chromogenic substrate specific for FXa. Factor Xa cleaves p-nitroaniline from the chromogenic substrate. The determinations are carried out in microtiter plates as follows:
The test substances, in various concentrations, are dissolved in DMSO and incubated for 10 minutes at 25° C. with human FXa (0.5 nmol/l dissolved in 50 mmol/l of Tris buffer [C,C,C-tris(hydroxymethyl)aminomethane], 150 mmol/l of NaCl, 0.1% BSA [bovine serum albumin], pH=8.3). Pure DMSO is used as control. The chromogenic substrate (150 μmol/l Pefachrome® FXa from Pentapharm) is then added. After an incubation time of 20 minutes at 25° C., the extinction at 405 nm is determined.

As usually defined, the IC50 is the point on the concentration scale where inhibition reaches its midpoint. Higher therefore signals lower potency.

Sequence of human factor Xa (FXa) (P00742 235-488 limits assumed): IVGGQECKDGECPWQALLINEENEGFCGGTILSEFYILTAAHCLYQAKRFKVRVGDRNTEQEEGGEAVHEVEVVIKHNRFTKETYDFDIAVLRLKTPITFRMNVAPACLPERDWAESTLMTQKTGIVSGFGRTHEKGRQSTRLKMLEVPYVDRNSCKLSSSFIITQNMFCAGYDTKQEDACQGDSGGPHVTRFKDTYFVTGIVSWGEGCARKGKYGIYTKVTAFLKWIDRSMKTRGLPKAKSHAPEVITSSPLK
Sequence of human factor Xa (FXa) (P00742 41-179 partner limits assumed): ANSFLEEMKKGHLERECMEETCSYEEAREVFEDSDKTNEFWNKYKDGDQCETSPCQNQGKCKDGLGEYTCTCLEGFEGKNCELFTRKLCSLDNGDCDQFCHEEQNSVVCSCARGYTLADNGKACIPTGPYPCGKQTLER

Consider `N=C1OCCN1c1ccc(NC(=O)c2cscc2NC(=O)c2ccc(Cl)s2)cc1` [Example 16, 5-Chloro-N-[4-({[4-(2-imino-1,3-oxazolidin-3-yl)phenyl]amino}carbonyl)-3-thienyl]thiophene-2-carboxamide methanesulfonate], for which the IC50 was determined as 2.2 nM. On to `N=C1OCCN1c1ccc(NC(=O)c2ccncc2NC(=O)c2ccc(Cl)s2)cc1` [Example 11, 3-{[(5-Chloro-2-thienyl)carbonyl]amino}-N-[4-(2-imino-1,3-oxazolidin-3-yl)phenyl]isonicotinamide methanesulfonate], for which the IC50 is 6.3 nM.

Regarding `N=C1OCCN1c1ccc(NC(=O)c2ccc(C(F)(F)F)cc2NC(=O)c2ccc(Cl)s2)cc1` [Example 3, 5-Chloro-N-[2-({[4-(2-imino-1,3-oxazolidin-3-yl)phenyl]amino}carbonyl)-5-(trifluoromethyl)-phenyl]thiophene-2-carboxamide methanesulfonate], the IC50 is 1.1 nM. As for `CSc1nc(NC(=O)c2ccc(Cl)s2)c(C(=O)Nc2ccc(N3CCOC3=N)cc2)s1` [Example 24, 4-{[(5-Chloro-2-thienyl)carbonyl]amino}-N-[4-(2-imino-1,3-oxazolidin-3-yl)phenyl]-2-(methyl-thio)-1,3-thiazole-5-carboxamide methanesulfonate], the figure is 0.91 nM; as for `Cc1cc(NC(=O)c2ccc(Cl)s2)c(C(=O)Nc2ccc(N3CCOC3=N)cc2)cc1N(C)C` [Example 20, 5-Chloro-N-[4-(dimethylamino)-2-({[4-(2-imino-1,3-oxazolidin-3-yl)phenyl]amino}carbonyl)-5-methylphenyl]thiophene-2-carboxamide methanesulfonate], 0.66 nM.

Source of the values: patent US20100004292A1, “Iminooxazolidine Derivatives and Their Use” (Bayer HealthCare AG, priority 2005, published 2010).
